pIC50: −log10 of the molar value. Like-named read-outs stand apart in the source and are kept apart here.
Legend:
β-catenin = assay: Immunofluorescence staining in HCT116 cells; format: cell-based, human; conditions: 2 and 4 μM, p < 0.01 vs vehicle
Protocol: (§1) HCT116 cells were used to ascertain the action of compound 15k on α-tubulin, E-cadherin and β-catenin. The cells were seeded on to culture glass covers inserted in 6 well plates. The compound was added at 0, 2, and 4μM and incubated with the cells overnight at 37°C. Paraformaldehyde (4%) was used for cell fixation, followed by permiabilization with 0.3% triton 100× in PBS for 25 min. The cells were blocked with 3% BSA in PBS for 30 min. The α-tubulin, E-cadherin, or β-catenin rabbit antibodies in the correct dilution were added, followed by fluorescent anti-rabbit secondary antibody in the same manner. The nuclei were stained with the nuclear dye, DAPI, for 15 min. The EVOS cell imaging system was used to detect the fluorescence from each slide.

α-tubulin = assay: Immunofluorescence staining in HCT116 cells; format: cell-based, human; conditions: 2 or 4 μM, overnight, p < 0.001 vs control
Protocol: as §1

E-cadherin = assay: Immunofluorescence staining in HCT116 cells; format: cell-based, human; conditions: 2 μM p < 0.05, 4 μM p < 0.001, 24 h
Protocol: as §1

HCT116 = assay: MTT assay; format: cell-based, human; conditions: Homo sapiens, HCT-116, MTT
Protocol: The 3-(4,5-dimethylthiazol-2-yl)-2,5-diphenyltetrazolium bromide (MTT) assay was used to determine the sensitivity of the different CRC cells to the novel silybin derivatives (Hussein et al., [2017]; Manivannan et al., [2017]). The cells were seeded at a density of 4,000–5,000 cells/well in 96 well plates and incubated with serial dilutions of the compounds (0, 0.1, 0.3, 1, 3, 10, 30, and 100 μM). The MTT dye (4 mg/ml) was added after 72 h of incubation and incubated with the cells for an additional 4 h at 37°C. Following incubation, the media was discarded and the formazan crystals were dissolved by adding 100 μL of DMSO to each well. A DTX 880 multimode detector (Beckman Coulter Life, Indianapolis IN, USA) was used to determine the absorbance readings at a wavelength of 570 nm. The IC50 values were determined based on 3 separate experiments, with each experiment done in triplicate. The selectivity of the compounds was determined by comparing their cytotoxicity for CRC to normal epithelial cell lines (CHO, and CRL1459).

PARP = assay: Western blot in HCT116 cells (nuclear fraction); format: cell-based, human; conditions: 4 μM, vs control
Protocol: HCT116 cells were lysed to obtain cytoplasmic and nuclear protein fractions, according to the protocol used in previous publications (Alhadidi and Shah, [2017]). Briefly, the cells were seeded in and incubated with 15k for overnight at 4μM. The cells were washed using ice-cold PBS and scraped using a cell scraper and collected in 15ml tubes. The cells were centrifuged and the PBS was discarded and replaced with 400 μl of buffer A (10 mM HEPES, pH 7.9, 0.1 mM EDTA, 0.1 mM EGTA, 10 mM KCl, 1 mM dithiothreitol, and 0.5 mM phenylmethylsulfonyl fluoride) in each tube. The cells were allowed to swell under in the buffer for 15 min on ice. Subsequently, 0.1% Nonidet P-40 was added to each suspension for 1 min to disturb the plasma membrane. The nuclei were precipitated by centrifugation at 13,000 rpm for 1 min at 4°C. The cytoplasmic proteins were collected in the supernatant and stored at −80°C. Two hundred μl of Buffer B (20 mM HEPES, pH 7.9, 1 mM EDTA, 1 mM EGTA, 400 mM NaCl, 1 mM dithiothreitol, and 1 mM phenylmethylsulfonyl fluoride) was added to the pellets and left for 30 min on ice with periodic mixing. […] The bicinchoninic acid (BCA) quantification assay was used to determine the concentration of protein in the cell extracts. […] Finally, proteins were quantified using the image J software. Data were calculated as ratios to β-actin.

LOVO cells = assay: Transwell migration assay; format: cell-based, human; conditions: 2 and 4 μM, 24 h, vs vehicle
Protocol: The effect of compound 15k on the invasiveness of LOVO was tested using 24 trans-well inserts with an […]. The addition of the insert to the well forms two chambers (upper and lower), where the upper chamber was used to grow the cells on the porous membrane. The lower chamber was filled with 600 μl of cell-free DMEM medium. A 200 μl of cell suspension was added to each insert and allowed to attach for 1 h. The test compound was added in different concentrations and incubated with the cells for 24 h. […] Finally, the remaining migrated cells were fixed by methanol and dyed with 0.1% crystal violet dye and observed with an EVOS microscope. The number of migrated cells was counted and compared between the treated and control cells.

HCT116 cells = assay: CellTiter-Glo luminescent assay (ATP content); format: cell-based; conditions: Homo sapiens, HCT-116, data not shown, read-out: IC50, ATP depletion
Protocol: Subsequently, we conducted experiments to determine if compound 15k produced a time-dependent effect on cell death. […] The HCT116 cells had intense fluorescence over time compared to the cells incubated with vehicle, with a significant difference in the number of dead cells after 24 h of incubation with 2 μM of 15k. […] The cytotoxicity of 15k and 15j in HCT116 cells were further determined using a more homogeneous CellTiter-Glo® luminescent cell based assay that measures the ATP content in the metabolically active cells.

pIC50 (HCT116; 72 h incubation, mean ± SD of three experiments, read-out: IC50 ± SD, Colon HCT116): 6.05 | pIC50 (HCT116; comparison with knockout cells, read-out: IC50, HCT116 wild type): 6.05 | pIC50 (HCT116 cells): 6.12
Compound: O=C(/C=C/c1cccc(OCc2ccccc2)c1)c1ccc(O)cc1 [Compound 15k]
level of β-catenin available for nuclear translocation (immunostaining) (β-catenin): significant decrease | α-tubulin green fluorescence (α-tubulin): significant reduction | E-cadherin expression (immunostaining) (E-cadherin): significantly increased | total PARP (PARP): significantly reduced | number of cells migrated through transwell (LOVO cells): significantly decreased the number of LOVO cells that migrated
